Results: US20220380357A1, “TETRAHYDROISOQUINOLINE COMPOUNDS” (ALLINKY BIOPHARMA, priority 2019, published 2022)
Read-outs that look alike come from different tables or passages of the source.

Key:
Assay type in all cases: cell-based
[1] = system: A549. Lung carcinoma cell line bearing KRas^G12S oncogenic mutation; assay: Antiproliferative MTS assay, A549 cells; conditions: compounds 1-23 and 47-52 median of experiments, 24-46 estimations and/or preliminary results, read-out: IC50 values: cell proliferation inhibition, A549
Description: Cell line #1: A549. Lung carcinoma cell line bearing KRas^G12S oncogenic mutation
(§1) Cell lines were cultured in DMEM or RPMI-1640 supplemented with FBS 10%. In order to assess the antiproliferative effect of compounds, cells were seeded at a density of 1.8×10^3, 6.2×10^3, 7.8×10^3, 21×10^3 and 2×10^3 cells/cm^2, respectively, in tissue culture microplates and were incubated in humidified atmosphere at 5% CO2. 24 h later, compounds dissolved in DMSO 100% were added for different final concentrations ranging between 0.1 and 50 μM for a final DMSO concentration of 0.5% and the plates were incubated for another 72 h. After incubation, proliferation was quantified using CellTiter 96® Aqueous Non-Radioactive Cell Proliferation Assay-MTS (Promega #G5421) following manufacturer instructions. Amount of 490 nm absorbance is directly proportional to the number of living cells. Absorbance was recorded with a BMG Fluostar Optima Microplate Reader and normalized to control with vehicle.

[2] = system: RPMI. myeloma cell line bearing KRas^G12A oncogenic mutation; assay: Antiproliferative MTS assay, RPMI cells; conditions: 72 h, compounds 1-23 and 47-52 median of experiments, 24-46 estimations and/or preliminary results, read-out: IC50 values: cell proliferation inhibition, RPMI
Description: Cell line #4: RPMI. myeloma cell line bearing KRas^G12A oncogenic mutation
as §1

[3] = system: PANC-1. epithelioid carcinoma of the pancreas cell line bearing KRas^G12D oncogenic mutation; assay: Antiproliferative MTS assay, PANC-1 cells; conditions: compounds 1-23 and 47-52 median of experiments, 24-46 estimations and/or preliminary results, read-out: IC50 values: cell proliferation inhibition, Panc-1
Description: Cell line #3: PANC-1. epithelioid carcinoma of the pancreas cell line bearing KRas^G12D oncogenic mutation
as §1

[4] = system: H358. non-small cell lung cancer line bearing KRas^G12C oncogenic mutation; assay: Antiproliferative MTS assay, H358 cells; conditions: compounds 1-23, 47-52 and Reference Example 1 median of experiments, 24-46 estimations and/or preliminary results, read-out: IC50 values: cell proliferation inhibition, H358
Description: Cell line #2: H358. non-small cell lung cancer line bearing KRas^G12C oncogenic mutation
as §1

SMILES | IC50 ([1]; Homo sapiens, A549, 72 h) [nM] | IC50 [2] [nM] | IC50 ([3]; Homo sapiens, PANC-1, 72 h) [nM] | IC50 ([4]; Homo sapiens, NCI-H358, 72 h) [nM] | IC50 ([3]; 72 h) [nM] | IC50 ([4]; 72 h) [nM] | IC50 ([1]; 72 h) [nM]
COc1ccc(CCOc2cc3c(cc2OC)CCN(C(=O)NCC(F)(F)F)C3c2ccc(Cl)cc2C)cc1N (stereo not drawn) [Compound 28] | 800 | 100 | 200 | 300 |  |  | 
COc1cc(CCOc2cc3c(cc2OC)CCN(C(=O)NCc2cocn2)C3c2ccc(C(F)(F)F)cc2C)ccc1N (stereo not drawn) [Compound 34] | 1200 | 100 | 400 | 500 |  |  | 
COc1ccc(CCOc2cc3c(cc2OC)CCN(C(=O)NCc2cocn2)C3c2ccc(C(F)(F)F)cc2C)cc1N (stereo not drawn) [Compound 15] | 1000 | 100 | 300 | 300 |  |  | 
COc1cc2c(cc1OCCc1ccc(OC)c([N+](=O)[O-])c1)C(c1ccc(C)cc1C)N(C(=O)NCc1cocn1)CC2 (stereo not drawn) [Compound 49] | > 2000 | > 1000 | 1500 | > 800 |  |  | 
COc1ccc(CCOc2cc3c(cc2OC)CCN(C(=O)NCc2ccon2)C3c2ccc(F)cc2C)cc1N (stereo not drawn) [Compound 22] | > 2000 | 500 | 600 | 700 |  |  | 
COc1ccc(CCOc2cc3c(cc2OC)CCN(C(=O)NCC(F)(F)F)C3c2ccc(C)cc2C)cc1N (stereo not drawn) [Compound 24] | 1000 | 100 | 200 | 200 |  |  | 
COc1ccc(CCOc2cc3c(cc2OC)CCN(C(=O)NCc2ccon2)C3c2ccc(Cl)cc2C)cc1N (stereo not drawn) [Compound 23] | 700 | 100 | 100 | 100 |  |  | 
COc1ccc(CCOc2cc3c(cc2OC)CCN(C(=O)NCc2ccon2)C3c2ccc(C)cc2C)cc1N (stereo not drawn) [Compound 19] | 1500 | 500 | 300 | 500 |  |  | 
COc1ccc(CCOc2cc3c(cc2OC)CCN(C(=O)NCC(F)(F)F)C3c2ccc(F)cc2C)cc1N (stereo not drawn) [Compound 27] | 900 | 100 | 300 | 300 |  |  | 
COc1ccc(CCOc2cc3c(cc2OC)CCN(C(=O)NCc2ccon2)C3c2ccc(C(F)(F)F)cc2C)cc1N (stereo not drawn) [Compound 20] | 1000 | 200 | 400 | 400 |  |  | 
COc1ccc(CCOc2cc3c(cc2OC)CCN(C(=O)NCC(F)(F)F)C3c2ccc(C(F)(F)F)cc2C)cc1N (stereo not drawn) [Compound 25] | > 2000 | 300 | 500 | 600 |  |  | 
COc1cc(CCOc2cc3c(cc2OC)CCN(C(=O)NCc2ccon2)C3c2ccc(C(F)(F)F)cc2C)ccc1N (stereo not drawn) [Compound 39] | > 2000 | 300 | 600 | 600 |  |  | 
COc1ccc(CCOc2cc3c(cc2OC)CCN(C(=O)NCc2cocn2)C3c2ccc(Cl)cc2C)cc1N (stereo not drawn) [Compound 18] | 1000 | 100 | 200 | 300 |  |  | 
COc1cc(CCOc2cc3c(cc2OC)CCN(C(=O)NCC(F)(F)F)C3c2ccc(C(F)(F)F)cc2C)ccc1N (stereo not drawn) [Compound 44] | > 2000 | 300 | 500 | 800 |  |  | 
COc1ccc(CCOc2cc3c(cc2OC)CCN(C(=O)NCc2cocn2)C3c2ccc(F)cc2C)cc1N (stereo not drawn) [Compound 17] | 1000 | 200 | 400 | 500 |  |  | 

Now from value to compound:

IC50 ([1]; Homo sapiens, A549, 72 h) [nM] | IC50 [2] [nM] | IC50 ([3]; Homo sapiens, PANC-1, 72 h) [nM] | IC50 ([4]; Homo sapiens, NCI-H358, 72 h) [nM] | IC50 ([3]; 72 h) [nM] | IC50 ([4]; 72 h) [nM] | IC50 ([1]; 72 h) [nM] | SMILES
1000 | 100 | 300 | 300 |  |  |  | COc1cc(CCOc2cc3c(cc2OC)CCN(C(=O)NCc2ccon2)C3c2ccc(Cl)cc2C)ccc1N (stereo not drawn) [Compound 42]
 |  |  | 300 |  |  |  | CCNC(=O)N1CCc2cc(OC)c(OCCc3ccc(OC)c(N)c3)cc2C1c1ccc(C(=O)OC)cc1C (stereo not drawn) [Reference Example 1, reference compound]
1000 | 100 | 300 | 300 |  |  |  | COc1ccc(C2c3cc(OCCc4ccc(N)c(OC)c4)c(OC)cc3CCN2C(=O)NCc2ccon2)c(C)c1 (stereo not drawn) [Compound 40]
> 2000 | 100 | 400 | 500 |  |  |  | CCNC(=O)N1CCc2cc(OC)c(OCCc3ccc(N)c(OC)c3)cc2C1c1ccc(F)cc1C (stereo not drawn) [Compound 31]
1000 | 200 | 300 | 600 |  |  |  | COc1ccc(C2c3cc(OCCc4ccc(N)c(OC)c4)c(OC)cc3CCN2C(=O)NCC(F)(F)F)c(C)c1 (stereo not drawn) [Compound 45]
> 2000 | 900 | 700 | 900 |  |  |  | COc1cc(CCOc2cc3c(cc2OC)CCN(C(=O)NCc2ccon2)C3c2ccc(F)cc2C)ccc1N (stereo not drawn) [Compound 41]
900 | 100 | 100 | 200 |  |  |  | CCNC(=O)N1CCc2cc(OC)c(OCCc3ccc(OC)c(N)c3)cc2C1c1ccc(F)cc1C (stereo not drawn) [Compound 12]
900 | 100 | 200 | 200 |  |  |  | COc1ccc(C2c3cc(OCCc4ccc(OC)c(N)c4)c(OC)cc3CCN2C(=O)NCc2ccon2)c(C)c1 (stereo not drawn) [Compound 21]
1000 | 300 | 400 | 400 |  |  |  | COc1ccc(C2c3cc(OCCc4ccc(N)c(OC)c4)c(OC)cc3CCN2C(=O)NCc2cocn2)c(C)c1 (stereo not drawn) [Compound 35]
1600 | 400 |  |  | 500 | 700 |  | CCNC(=O)N1CCc2cc(OC)c(OCCc3ccc(N)c(OC)c3)cc2C1c1ccc(Cl)cc1C (stereo not drawn) [Compound 14]
1500 | 200 | 400 | 500 |  |  |  | COc1cc(CCOc2cc3c(cc2OC)CCN(C(=O)NCc2ccon2)C3c2ccc(C)cc2C)ccc1N (stereo not drawn) [Compound 38]
1000 | 300 | 500 | 400 |  |  |  | CCNC(=O)N1CCc2cc(OC)c(OCCc3ccc(N)c(OC)c3)cc2C1c1ccc(OC)cc1C (stereo not drawn) [Compound 30]
1000 | 100 | 200 | 300 |  |  |  | COc1cc(CCOc2cc3c(cc2OC)CCN(C(=O)NCC(F)(F)F)C3c2ccc(C)cc2C)ccc1N (stereo not drawn) [Compound 43]
1500 | 100 | 400 | 400 |  |  |  | COc1cc(CCOc2cc3c(cc2OC)CCN(C(=O)NCc2cocn2)C3c2ccc(Cl)cc2C)ccc1N (stereo not drawn) [Compound 37]
1500 | 200 | 400 | 500 |  |  |  | CCNC(=O)N1CCc2cc(OC)c(OCCc3ccc(N)c(OC)c3)cc2C1c1ccc(C(F)(F)F)cc1C (stereo not drawn) [Compound 29]
1000 | 100 | 200 | 300 |  |  |  | COc1ccc(C2c3cc(OCCc4ccc(OC)c(N)c4)c(OC)cc3CCN2C(=O)NCc2cocn2)c(C)c1 (stereo not drawn) [Compound 16]
1700 | 500 | 700 | 900 |  |  |  | COc1cc(CCOc2cc3c(cc2OC)CCN(C(=O)NCc2cocn2)C3c2ccc(F)cc2C)ccc1N (stereo not drawn) [Compound 36]
 | 100 |  |  | 200 | 300 | 1000 | CCNC(=O)N1CCc2cc(OC)c(OCCc3ccc(N)c(OC)c3)cc2C1c1ccc(Cl)cc1C (stereo not drawn) [Compound 32]
1000 | 100 | 300 | 500 |  |  |  | COc1cc(CCOc2cc3c(cc2OC)CCN(C(=O)NCC(F)(F)F)C3c2ccc(F)cc2C)ccc1N (stereo not drawn) [Compound 46]
> 2000 | 700 | 600 | 800 |  |  |  | COc1cc(CCOc2cc3c(cc2OC)CCN(C(=O)NCc2cocn2)C3c2ccc(C)cc2C)ccc1N (stereo not drawn) [Compound 33]
1000 | 200 | 500 | 400 |  |  |  | COc1ccc(C2c3cc(OCCc4ccc(OC)c(N)c4)c(OC)cc3CCN2C(=O)NCC(F)(F)F)c(C)c1 (stereo not drawn) [Compound 26]
